# Activity calls are given as the source filed them. No cut-off for these calls is given here.
# Experiments:
# [1] = Cytotoxicity against human MDM cells assessed as reduction in cell viability at 20 ug/ml incubated for 24 hrs by MTT assay; type: cell-based; settings: dose 20 µg/ml
# [2] = Cytotoxicity against human MDM cells assessed as reduction in cell viability at 40 ug/ml incubated for 24 hrs by MTT assay; type: cell-based; settings: dose 40 µg/ml
# BMDM = test: Inhibition of IL-10-induced CD163 expression in human MDM cells at 20 ug/ml incubated for 24 hrs by ELISA; type: functional, cell-based; settings: dose 20.0 µg/ml
# [3] = Cytotoxicity against human MDM cells assessed as reduction in cell viability at 20 ug/ml incubated for 48 hrs by MTT assay; type: cell-based; settings: dose 20 µg/ml
# HT-22 [4] = test: Protection against TM mediated ER stress-induced cell death in mouse HT-22 cells assessed as increase in cell viability at 10 uM incubated for 24 hrs by MTT assay; type: functional, cell-based
# HT-22 [5] = test: Cytotoxicity against mouse HT-22 cells assessed as reduction in cell viability at 10 uM incubated for 24 hrs by MTT assay; type: cell-based; settings: ht-22, 24 h
# HT-22 [6] = test: Cytotoxicity against mouse HT-22 cells assessed as reduction in cell viability at 10 uM incubated for 24 hrs in presence of tunicamycin by MTT assay; type: cell-based; settings: ht-22, 24 h
# HT-22 [7] = test: Cytotoxicity against mouse HT-22 cells assessed as reduction in cell viability at incubated for 24 hrs by MTT assay; type: cell-based; settings: HT-22, 24 h
SMILES,Activity [1],Activity [2],inhibition (BMDM),Activity [3],Activity (HT-22 [4]),Activity (HT-22 [5]),Activity (HT-22 [6]),IC50 (HT-22 [7]) [µM]
CC1=CC[C@@H]2[C@@]3(C)CC[C@H](O)C(C)(C)[C@@H]3CC[C@@]2(C)[C@]12Cc1c(cc(-c3cccnc3)oc1=O)O2,Non-Toxic,Toxic,Active,Toxic,–,–,–,–
C/C(=C\CC/C(C)=C/Cc1c(O)cc(-c2cccnc2)oc1=O)CC/C=C(\C)CCC(O)C(C)(C)O (centres undefined),Non-Toxic,Toxic,Active,Toxic,Active,Non-Toxic,–,–
CC1=CC[C@@H]2[C@]34CC[C@](O)(OC3)C(C)(C)[C@@H]4CC[C@@]2(C)[C@@]12Oc1cc(-c3cccnc3)oc(=O)c1[C@@H]2O [DECATURIN B],Non-Toxic,Toxic,Active,Toxic,Active,Toxic,–,–
CC1=CC[C@@H]2[C@@]3(C)CCC(=O)C(C)(C)[C@@H]3CC[C@@]2(C)[C@]12Cc1c(cc(-c3cccnc3)oc1=O)O2 [DECATURIN D],Non-Toxic,Toxic,Active,Toxic,Active,Toxic,–,–
C=C(C)[C@@H]1CC[C@]2(C)[C@H](CC=C(C)[C@]23Oc2cc(-c4cccnc4)oc(=O)c2[C@@H]3O)[C@@]12CCC(=O)OC2 [OXALICINE A],–,–,–,–,–,–,Toxic,5.9

# From ChEMBL document CHEMBL4725266, “Decaturenol A and known oxalicine related meroterpenoids isolated from Penicillium decaturense RO050, and their new biological activities” (Bioorg Med Chem Lett, 2020)
